{"source": "paper PMC3914206", "data": [{"target": "T1, panel of 442 kinases (Homo sapiens, UniProt O75747)", "T1 construct": "purchased KINOMEscan", "T1 sequence (O75747 1-1486)": "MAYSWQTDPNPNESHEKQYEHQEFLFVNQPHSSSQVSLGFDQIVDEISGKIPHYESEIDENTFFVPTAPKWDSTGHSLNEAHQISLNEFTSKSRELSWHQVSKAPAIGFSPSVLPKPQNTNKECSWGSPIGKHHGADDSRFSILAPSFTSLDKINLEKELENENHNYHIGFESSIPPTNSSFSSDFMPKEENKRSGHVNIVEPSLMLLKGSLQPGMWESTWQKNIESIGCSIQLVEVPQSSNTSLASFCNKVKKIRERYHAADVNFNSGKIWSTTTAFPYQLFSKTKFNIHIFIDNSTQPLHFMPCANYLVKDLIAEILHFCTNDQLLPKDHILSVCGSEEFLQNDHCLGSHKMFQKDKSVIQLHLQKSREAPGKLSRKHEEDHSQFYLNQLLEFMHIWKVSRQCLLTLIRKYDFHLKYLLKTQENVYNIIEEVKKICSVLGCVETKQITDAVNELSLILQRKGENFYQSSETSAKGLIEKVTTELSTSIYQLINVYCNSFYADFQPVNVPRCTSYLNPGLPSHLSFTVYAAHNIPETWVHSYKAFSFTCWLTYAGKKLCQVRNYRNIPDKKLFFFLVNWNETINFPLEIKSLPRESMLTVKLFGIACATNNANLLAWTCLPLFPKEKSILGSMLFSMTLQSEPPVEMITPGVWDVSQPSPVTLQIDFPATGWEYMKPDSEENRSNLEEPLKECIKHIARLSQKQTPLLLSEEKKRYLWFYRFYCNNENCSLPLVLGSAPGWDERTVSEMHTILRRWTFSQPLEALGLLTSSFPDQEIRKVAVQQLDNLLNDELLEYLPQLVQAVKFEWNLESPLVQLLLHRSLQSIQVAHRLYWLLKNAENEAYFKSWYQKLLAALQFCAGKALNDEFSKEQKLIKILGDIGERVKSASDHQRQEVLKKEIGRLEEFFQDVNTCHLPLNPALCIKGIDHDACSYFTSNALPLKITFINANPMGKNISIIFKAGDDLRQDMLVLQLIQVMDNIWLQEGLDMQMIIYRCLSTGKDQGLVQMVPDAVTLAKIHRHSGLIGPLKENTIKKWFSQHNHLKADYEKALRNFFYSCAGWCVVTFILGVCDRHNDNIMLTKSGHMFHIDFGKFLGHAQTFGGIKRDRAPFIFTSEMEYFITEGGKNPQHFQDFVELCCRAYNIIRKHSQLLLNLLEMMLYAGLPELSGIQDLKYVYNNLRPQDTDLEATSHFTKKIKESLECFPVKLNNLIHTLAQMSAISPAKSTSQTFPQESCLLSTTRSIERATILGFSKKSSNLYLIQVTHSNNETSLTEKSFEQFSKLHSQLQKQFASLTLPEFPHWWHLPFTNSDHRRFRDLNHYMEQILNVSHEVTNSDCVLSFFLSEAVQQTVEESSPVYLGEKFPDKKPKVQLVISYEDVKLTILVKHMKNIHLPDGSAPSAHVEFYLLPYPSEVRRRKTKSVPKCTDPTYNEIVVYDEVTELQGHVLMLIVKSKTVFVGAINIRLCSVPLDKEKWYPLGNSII", "type": "binding", "settings": "Compound Concentration 10 µM", "source_text": "We assessed the selectivity of members of this scaffold using the KINOMEscan methodology across a near comprehensive panel of 442 kinases [[18,27]].", "values": [{"smiles": "CCOc1cc(C(=O)N2CCC(N3CCN(C)CC3)CC2)ccc1Nc1ncc2c(n1)N(C1CCCC1)c1ccccc1C(=O)N2C", "note": "[Compound 26]", "KINOMEscan: PIK3C2G": 99}, {"smiles": "COc1cc(C(=O)N2CCC(N3CCN(C)CC3)CC2)ccc1Nc1ncc2c(n1)N(C)c1ccccc1C(=O)N2C", "note": "[15 (LRRK2-IN-1)]", "KINOMEscan: PIK3C2G": 100}, {"smiles": "COc1cc(C(=O)N2CCC(N3CCN(C)CC3)CC2)ccc1Nc1ncc2c(n1)N(C1CCCC1)c1ccccc1C(=O)N2C", "note": "[Compound 25, 11-cyclopentyl-2-((2-methoxy-4-(4-(4-methylpiperazin-1-yl)piperidine-1-carbonyl)phenyl)amino)-5-methyl-5H-benzo[e]pyrimido[5,4-b][1,4]diazepin-6(11H)-one]", "KINOMEscan: PIK3C2G": 100}]}]}
